The subject of data set [1] is JAK3-positive leukemia cell lines DAUDI, RAMOS, LC1;19, NALM-6, MOLT-3, HL-60. The settings on record: concentration-dependent, not JAK3-negative lines (Sudbeck et al); cited from earlier work.
For another data set, the system named is glioblastoma cell. The settings on record: Narla et al; cited from earlier work.
For data set [2], the system named is human primary neutrophils. The data set is described as follows: Neutrophil apoptosis by sub G1 analysis (DNA fragmentation). The format is cell-based. The settings on record: neutrophils cultured overnight with GM-CSF (65% without). The method, then: Neutrophils are isolated from the blood as described in WO 02/04657 and resuspended at a concentration of 2×10^6/ml. Five hundred microlitres are pipetted into wells of a 24 well plate and incubated in the presence or absence of survival factors.
After this incubation, the neutrophils are carefully resuspended by gentle agitation and the total contents of the well are placed into an eppendorf and centrifuged@2800 rpm for 2 min@RT in a minifuge. The cell pellet is carefully resuspended in 300 μl of ice cold hypotonic fluorochrome solution (50 μg/ml Propidium Iodide, 0.1% Sodium Citrate and 0.1% Triton X-100) and placed in a fridge for 24 h@4° C.
Prepared samples are analysed with a FacsCalibre flow cytometer (Becton Dickinson) using double discrimination to ensure single cell suspension with Log Forward and Side Scatter Parameter acquisition.
Neutrophils are seeded at 2×10^6/ml in a 24 well plate in full culture medium (1 ml/well). A PI3K inhibitor (Ly294002) is added to the neutrophils to a final concentration of 20 μM prior to the addition of GM-CSF (50 units/ml). Control wells received either no GM-CSF or F GM-CSF (50 units/ml) in the absence of inhibitor. Neutrophils are cultured for 18 h at 37° C. prior to harvest and prepared for sub G1 analysis, as previously described.
Neutrophils are seeded at 2×10^6/ml in a 24 well plate in full culture medium (1 ml/well). An AKT inhibitor ([1L-6-Hydroxymethyl-chiro-inositol 2-O-methyl-3-O-octadecylcarbonate] (Calbiochem)) is added to the neutrophils to a final concentration of 20 μM and incubated for 2 h prior to the addition of GM-CSF (50 units/ml). Control wells receive either no GM-CSF or GM-CSF (50 units/ml) in the absence of inhibitor. Neutrophils are cultured for 18 h at 37° C. prior to harvest and prepared for sub G1 analysis, as previously described.

The subject of data set [3] is TF1 cells. The data set is described as follows: TF1 apoptosis by light scatter (FSC/SSC, live gate) analysis. The format is cell-based, human. To be noted: TF1, 48 h, with GM-CSF 2 ng/ml (35% upon factor withdrawal). The method, then:
Light Scatter Analysis takes advantage of the fact that by using the laser beam of a flow cytometer one can determine the size (Forward Scatter) and granularity (Side Scatter) of a cell. The morphological changes associated with apoptosis, such as decreased size (shrinkage) and granularity affect these parameters. As a consequence, cells undergoing apoptosis will move to the left and slightly down, from the parameters of a healthy population.
TF1 cells are plated into 24 well plates (2×10^5/ml) and are cultured for 48 h in the presence or absence of GM-CSF (2 ng/ml). Cells are then harvested by centrifugation (1000 rpm, for 10 min) and washed in PBS. […] Forward and Side scatter parameters are assessed using Cell Quest software.
Culturing TF1 cells in the absence of GM-CSF induces cell death. This death induces morphological changes in the Forward and Side Scatter parameters that can be detected by FacsCalibre analysis. […]
To assess the antiapoptotic effect of BCL2 over-expression in TF1 cells, cells are transduced with either retrovirus expressing full length BCL2 coding sequence or control vector lacking BCL2. […] The percentage of transduced cells remaining in the live gate (an arbitrary region pre-set on a healthy population of TF1 cells grown in the presence of GM-CSF (2 ng/ml)) is recorded. An index of antiapoptotic activity is calculated by computing the difference in samples ±GMCSF. […]

The subject of data set [4] is TF1 cells. The data set is described as follows: TF1 apoptosis by sub G1 analysis. The settings on record: TF1, 48 h, with GM-CSF (approximately 55% in the absence). The class given is cell-based, human. The protocol:
TF1 cells are cultured for 48 h in the presence or absence of GM-CSF (2 ng/ml). Cells are then harvested by centrifugation (1000 rpm, for 10 min) and washed in PBS. The pellet is resuspended in PBS (2×10^5 cells/ml) and 1 ml is then added in a dropwise fashion to ice cold 70% EtoH whilst continuously vortexing. Cells are then permeabilized by incubating at −20° C. for 24 h. To stain DNA, cells are centrifuged and washed in PBS. Cells are resuspended in 500 μl Propidium Iodide Buffer (Propidium iodide (50 μg/ml); RNAse A (50 μg/ml) for 15 min in the dark before flow cytometric analysis using a FacsCalibre (Becton Dickinson). Analysis is performed using Cell Quest software.

For data set [5], the system named is OAS1 and GBP1 mRNA in HCT15, A549, SKOV3, DU145, PC3, A498, U251 cells. The data set is described as follows: Interferon response genes mRNA by QPCR after siRNA transfection. The class given is cell-based, human. The settings on record: compared to untransfected cells. The text has this: Inhibiting gene expression using siRNA has been associated with non-specific induction of interferon from target cells (Sledz C A et al. Nat Cell Biol. September 2003; 5(9): 834-9. 2003). Since induction of interferon may possibly affect biological assays, we control for the effect of our siRNA oligonucleotides on inducing interferon. This is examined by quantitating message RNA levels for two interferon responsive genes, namely OAS1, and GBP1, both before and after siRNA transfection.
QPCR Primers, designed by MWG Biotech as described previously, are as follows.
The levels of expression of OAS1 and GBP1 in siRNA-transfected cells are expressed as a percentage of that in untransfected control cells.

A further data set relates to ELAV-1. The data set is described as follows: Validation of missense control siRNA on ELAV-1 expression. To be noted: missense control with 4 base pair mismatch substitutions. The class given is cell-based. From the text: The missense control outlined above is designed by introducing 4 base pair mismatch substitutions into the siRNA oligo sequence for ELAV-1 (Accession number xm—008947; gi 1475941).

For data set [6], the system named is PDK1 regulatory sites in S6K1 and Akt. To be noted: Ballif et al; cited from earlier work.

`COc1cc2ncnc(Nc3ccc(O)cc3)c2cc1OC` [WHI-P131]: the clonogenic growth result in data set [1] is listed as “inhibited the clonogenic growth”. In addition, in the data set on glioblastoma cell, the “glioblastoma cell adhesion and migration” value was “potent inhibitors of glioblastoma cell adhesion and migration”.

“GM-CSF: a 22 kDa proinflammatory cytokine; survival factor for neutrophils and TF1 cells”: the “percentage of cells with a sub G1 profile” value in data set [2] worked out at 9.7%. Moreover, in the data set on TF1 cells [3], the “percentage of cells in the live gate” value was found to be 77%. Besides, the “cells with sub-G1 profiles” value in the data set with TF1 cells [4] stood at 5%.

Regarding “siRNA MS: missense control siRNA, sense UGAGAAUGUGAUGCGCGUCTT, antisense GACGCGCAUCACAUUCUCATT (chemistry not given here)”, the “mRNA levels of interferon response genes OAS1 and GBP1” value in data set [5] (HCT15, A549, SKOV3, DU145 and U251 cells) is recorded as “does not increase mRNA levels of interferon response genes”; in data set [5] (PC3 and A498 cells), “Some increase in mRNA of interferon response genes”. For the same compound, the “expression of ELAV-1” value in the data set with ELAV-1 was “incapable of decreasing the expression ELAV-1”.

For `Cc1ccc(S(=O)(=O)N[C@@H](Cc2ccccc2)C(=O)CCl)cc1` [TPCK, n-alpha-tosyl-1-phenylalanyl chloromethyl ketone], the “phosphorylation of PDK1 regulatory sites” value in data set [6] is “prevented phosphorylation of the PDK1 regulatory sites in S6K1 and Akt”.

The values are drawn from US20050019746A1, “Apoptosis-related kinase/GPCRs” (EiRx Therapeutics Limited, priority 2003, published 2005).
